Results as given in BindingDB's records for doi:10.1021/jm00109a029 (Research Biochemicals, 1991).

Assay: Compound was evaluated for inhibition of specifically bound [3H]- cocaine (2.7 nM) against Dopamine transporter in cynomolgus monkeys

COC(=O)C1C2CCC(C[C@@H]1c1ccc(F)cc1)N2 (stereo partly specified)
IC50: 0.036 µM
